{"source": "paper PMC3412845", "about": "“Waking Action of Ursodeoxycholic Acid (UDCA) Involves Histamine and GABAA Receptor Block” (PLoS ONE, 2012)", "key": {"[1]": {"test_system": "native GABAA receptors", "assay": "GABA-evoked whole-cell currents in acutely isolated TMN neurons (wild type)", "type": "cell-based, mouse", "experimental": "(§1) Recordings from histaminergic neurons in male Wistar rat (22–26 day old) or 30–60 day old mouse (SV129, histidine decarboxylase deficient HDC−/− or their wild type littermates) hypothalamic slices were performed as previously described. Slices were obtained between 9 and 11 a.m. In the beginning of whole-cell voltage clamp recordings TMN neurons were identified with the help of DIC microscopy and electrophysiological criteria as previously described. Inhibitory postsynaptic currents (IPSCs) were evoked by local stimulation through a bipolar stainless-steel stimulating electrode (50 µm; WPI, UK). The stimulation of axonal endings coming to TMN from ventrolateral preoptic area (VLPO) was done as described in [22]. […] Individual neurons were separated by vibrodissociation after brief preincubation with papain from the hypothalamic slices of mice or rats and identified as TMN neurons according to their size and shape. Identification was confirmed post hoc with the single-cell RT-PCR (all data presented in the manuscript were obtained from histidine decarboxylase-expressing neurons), [40]. TMN neurons from HDC−/− mice were identified by the expression of peripherin [16]. Whole-cell voltage-clamp recordings from isolated neurons were done with an EPC-9 amplifier and TIDA for Windows (HEKA, Lambrecht, Germany) at room temperature. Membrane potentials were not corrected for liquid junction potential (5.6 mV, calculated with LJPCalc, Barry, 1994). The intracellular solution was composed of (in mM) 140 KCl, 2 MgCl2, 0.5 CaCl2, 5 EGTA, 2 ATP and 10 HEPES (pH 7.2 adjusted with NaOH). A fast perfusion technique was used for application of ligands and modulators of fast ionotropic receptors, [41]. […] EC50 is the ligand concentration producing a half-maximal response, [ligand] is ligand concentration, and n is the Hill slope. Hill coefficients were obtained from the slope of the log/log plot of the dose-response curves. […] Steady-state amplitudes of the responses were used for the construction of dose-response plots if not mentioned otherwise."}, "[2]": {"parameters": "method as in PMID 22356133", "conditions": "cited from earlier work"}, "[3]": {"test_system": "TMN neurons (eIPSCs and sIPSCs)", "assay": "Spontaneous and evoked IPSCs in TMN neurons in brain slices", "type": "cell-based, rat", "experimental": "as §1"}, "[4]": {"parameters": "method as in PMID 12236487, PMID 15349909", "conditions": "after several month of UDCA therapy (up to 35 mg/kg); cited from earlier work"}, "[5]": {"test_system": "GABAA receptors of HDC−/− TMN neurons", "assay": "GABA-evoked whole-cell currents in TMN neurons from HDC−/− mice", "type": "cell-based, mouse", "conditions": "read-out: IC50 of inhibition of maximal GABA (0.5 mM) responses; adult HDC−/− mice, n = 5", "experimental": "as §1"}, "[6]": {"biological_target": "T1, α1β3γ2L GABAA receptors (UniProt P22723+P28472+P62813)", "T1 construct": "expressed in transfected cells; host or cells: HEK293", "T1 sequence (P62813 28-455)": "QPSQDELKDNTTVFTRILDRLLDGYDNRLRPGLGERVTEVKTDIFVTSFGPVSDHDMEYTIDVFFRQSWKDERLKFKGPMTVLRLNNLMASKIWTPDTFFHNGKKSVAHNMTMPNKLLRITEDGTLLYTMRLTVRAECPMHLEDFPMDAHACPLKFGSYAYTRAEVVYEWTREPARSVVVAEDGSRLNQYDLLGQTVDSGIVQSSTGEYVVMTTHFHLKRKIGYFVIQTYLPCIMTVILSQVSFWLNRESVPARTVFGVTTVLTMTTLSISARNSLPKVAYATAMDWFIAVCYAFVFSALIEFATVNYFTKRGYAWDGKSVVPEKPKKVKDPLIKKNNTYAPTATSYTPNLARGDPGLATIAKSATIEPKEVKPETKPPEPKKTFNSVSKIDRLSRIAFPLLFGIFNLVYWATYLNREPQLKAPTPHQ", "T1 sequence (P28472 26-473)": "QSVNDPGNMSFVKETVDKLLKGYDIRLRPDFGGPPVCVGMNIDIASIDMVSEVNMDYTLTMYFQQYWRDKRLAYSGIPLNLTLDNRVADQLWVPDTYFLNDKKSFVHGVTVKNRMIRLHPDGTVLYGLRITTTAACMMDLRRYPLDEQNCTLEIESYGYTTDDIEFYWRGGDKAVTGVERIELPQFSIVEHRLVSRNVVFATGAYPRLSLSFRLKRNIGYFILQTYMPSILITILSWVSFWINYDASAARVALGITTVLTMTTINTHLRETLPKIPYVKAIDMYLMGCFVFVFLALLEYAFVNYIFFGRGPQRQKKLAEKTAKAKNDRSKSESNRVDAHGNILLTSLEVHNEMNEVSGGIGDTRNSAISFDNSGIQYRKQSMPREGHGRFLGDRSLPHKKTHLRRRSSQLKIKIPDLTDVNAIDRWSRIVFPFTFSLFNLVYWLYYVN", "T1 sequence (P22723 39-474)": "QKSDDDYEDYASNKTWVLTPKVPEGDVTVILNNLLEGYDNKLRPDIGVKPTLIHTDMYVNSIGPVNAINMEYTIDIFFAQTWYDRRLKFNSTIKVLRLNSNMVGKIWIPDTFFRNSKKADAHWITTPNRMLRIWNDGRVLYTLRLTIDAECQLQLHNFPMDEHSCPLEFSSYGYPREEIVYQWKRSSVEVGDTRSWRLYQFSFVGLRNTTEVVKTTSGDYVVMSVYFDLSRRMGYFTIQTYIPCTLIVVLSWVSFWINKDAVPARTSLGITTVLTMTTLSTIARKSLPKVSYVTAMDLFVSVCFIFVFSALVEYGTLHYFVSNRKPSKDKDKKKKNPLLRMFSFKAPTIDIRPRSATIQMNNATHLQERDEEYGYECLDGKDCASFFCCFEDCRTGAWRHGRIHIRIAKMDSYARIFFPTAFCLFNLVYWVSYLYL", "assay": "Patch-clamp of recombinant α1β3γ2L GABAAR in HEK293 cells", "type": "cell-based, rat α1, human β3, mouse γ2L", "experimental": "(§2) HEK 293 cells were obtained from DSM (Deutsche Sammlung von Mikroorganismen und Zellkulturen GmbH, DSM, Braunschweig). They were grown and maintained according to published standard protocols. Briefly, cells were grown in minimal essential medium supplemented with 10% fetal bovine serum, 100units/ml penicillin and streptomycin and 2 mM L-glutamine and splitted once per week. Semiconfluent cells were transfected on the third day after splitting with the help of Lipofectamine 2000 (Invitrogen), recordings were done 48–72 hrs after transfection.\n(§3) The GABAAR subunit cDNAs, generously donated by G.Gisselmann (rat α1, mouse γ2L, rat β1, β2 and human β3 [26]) and J.H. Steinbach (rat α1V256S [28] and rat α1Q241L [44]), were subcloned into pcDNA3 (Invitrogen, Karlsruhe, Germany) and applied in a ratio 1∶1∶1 for the α1βxγ2L receptor and 1∶1 for α1β3 or β3γ2L receptors. […] For each receptor type patch clamp recordings were obtained from at least three separate transfections. Whole-cell patch clamp recordings were done in a similar extracellular solution as for the native cells (see above) except that the concentration of MgCl2 was reduced to 1.2 mM. Intracellular electrodes contained 140 mM CsCl (instead of KCl), pH adjusted with CsOH. The voltage was held at −40 mV."}, "[7]": {"biological_target": "T2, homopentameric β3 GABAA receptors (Homo sapiens, UniProt P28472)", "T2 construct": "expressed in transfected cells; host or cells: HEK293", "T2 sequence (P28472 26-473)": "as the sequence (P28472 26-473) above", "assay": "Patch-clamp of β3 homopentameric receptors in HEK293 cells, histamine-evoked currents", "type": "cell-based", "conditions": "histamine 5 mM", "experimental": "as §2, §3"}, "[8]": {"test_system": "GABAA receptor", "assay": "Voltage dependence of GABAAR block (Woodhull analysis)", "type": "cell-based", "experimental": "Voltage dependence of GABAAR block by UDCA was analysed according to the method of Woodhull, which provides a means of calculating the fraction of the transmembrane field sensed by charged blocking ligand at its acceptor site."}}}
{"smiles": "C[C@H](CCC(=O)O)[C@H]1CC[C@H]2[C@@H]3[C@@H](O)C[C@@H]4C[C@H](O)CC[C@]4(C)[C@H]3CC[C@]12C", "note": "[UDCA, ursodeoxycholic acid]", "values": [{"measurement": "deactivation time constant (τoff)", "setting": "[1]", "result": "prolonged"}, {"measurement": "peak current amplitude of maximal GABA-mediated whole-cell currents", "setting": "[1]", "result": "not affected"}, {"measurement": "use dependence of block of GABA currents", "setting": "[1]", "result": "not use dependent"}, {"measurement": "reversibility of block of GABA currents", "setting": "[1]; GABA 10 µM, 1 s", "result": "fully reversible"}, {"measurement": "concentration at which inhibition of GABA-evoked currents and sIPSCs starts", "setting": "[1]; acutely isolated histaminergic neurons", "result": 10, "unit": "µM"}, {"measurement": "macroscopic apparent desensitization of responses to saturating GABA", "setting": "[1]; decrease of fast decay time constant and steady-state/peak ratio", "result": "concentration-dependently enhanced"}, {"measurement": "IC50", "setting": "[1]; native receptors, steady-state currents, read-out: IC50 of inhibition of GABA-evoked currents", "result": 92, "unit": "µM"}, {"measurement": "access to the CNS", "setting": "[2]", "result": "reaches the CNS"}, {"measurement": "effect on eIPSCs and sIPSCs", "setting": "[3]; 30 µM", "result": "ineffective"}, {"measurement": "amplitude of eIPSCs and sIPSCs", "setting": "[3]; 100 µM", "result": "significantly inhibited the amplitude of eIPSCs and sIPSCs in less than half of the neurons"}, {"measurement": "amplitude and decay time of eIPSCs and sIPSCs", "setting": "[3]; 300 µM, all investigated neurons", "result": "significant reductions"}, {"measurement": "share of the total bile acid pool", "setting": "[4]", "result": "58–69%"}, {"measurement": "IC50", "setting": "[5]", "result": "90 ± 5", "unit": "µM"}, {"measurement": "Hill coefficient nH of UDCA block", "setting": "[6]; maximal GABA", "result": 0.63}, {"measurement": "IC50", "setting": "[6]; read-out: IC50 of block of GABA-evoked steady-state currents", "result": 73, "unit": "µM"}, {"measurement": "Hill coefficient nH of UDCA block", "setting": "[7]", "result": 0.8}, {"measurement": "IC50", "setting": "[7]; read-out: IC50 of block of histamine-evoked currents", "result": "7.4 ± 2", "unit": "µM"}, {"measurement": "current amplitude at +50 mV in the presence of UDCA", "setting": "[8]", "result": "69±5 % of control (−50 mV)"}, {"measurement": "fraction of the transmembrane field sensed at the acceptor site (f)", "setting": "[8]; Woodhull fit, Eq. 3", "result": "0.29±0.03"}, {"measurement": "Kd", "setting": "[8]; Woodhull fit, Eq. 3, read-out: KD(0), dissociation constant at 0 mV", "result": 64, "unit": "µM"}, {"measurement": "stationary GABA current in the presence of UDCA relative to unblocked current", "setting": "[8]; at +50 mV", "result": "28±2", "unit": "%"}, {"measurement": "stationary GABA current in the presence of UDCA relative to unblocked current", "setting": "[8]; at −50 mV", "result": "59±2", "unit": "%"}]}
